Values of other authors as cited in US20220401579A1, “INCLUSION COMPLEXES OF PHARMACEUTICALS AND CYCLIC OLIGOMERS” (DISPERSOL TECHNOLOGIES, LLC, priority 2019, published 2022).
Read-outs that look alike come from different tables or passages of the source.

Key:
[1] = for solubility in water / aqueous media (descriptive): water or aqueous media
[2] = granulate released in the proximal small intestine

For `CC(O)COC[C@H]1O[C@@H]2O[C@H]3[C@H](O)[C@@H](O)[C@@H](O[C@H]4[C@H](O)[C@@H](O)[C@@H](O[C@H]5[C@H](O)[C@@H](O)[C@@H](O[C@H]6[C@H](O)[C@@H](O)[C@@H](O[C@H]7[C@H](O)[C@@H](O)[C@@H](O[C@H]8[C@H](O)[C@@H](O)[C@@H](O[C@H]1[C@H](O)[C@H]2O)O[C@@H]8COCC(C)O)O[C@@H]7COCC(C)O)O[C@@H]6COCC(C)O)O[C@@H]5COCC(C)O)O[C@@H]4COCC(C)O)O[C@@H]3COCC(C)O` (stereo partly drawn) [HPBCD, hydroxy propyl β cyclodextrin], the water solubility ([1]; water) is given as greater than 600 mg/mL.

In the case of `CCC(C)n1ncn(-c2ccc(N3CCN(c4ccc(OCC5COC(Cn6cncn6)(c6ccc(Cl)cc6Cl)O5)cc4)CC3)cc2)c1=O` (stereo not shown) [Itraconazole, 2-butan-2-yl-4-[4-[4-[4-[[2-(2,4-dichlorophenyl)-2-(1,2,4-triazol-1-ylmethyl)-1,3-dioxolan-4-yl]methoxy]phenyl]-1-piperazinyl]phenyl]-1,2,4-triazol-3-one], the “solubility in alcohols (descriptive)” value ([1]; alcohols) is listed as “very slightly soluble”, the “solubility in dichloromethane (descriptive)” value ([1]; dichloromethane) is listed as “freely soluble” and the “log (n-octanol/water) partition coefficient” value ([1]; pH 8.1) is listed as 5.66. The “solubility in water / aqueous media (descriptive)” value [1] was “insoluble”.

In the case of `COC(=O)c1ccc2c(c1)NC(=O)/C2=C(\Nc1ccc(N(C)C(=O)CN2CCN(C)CC2)cc1)c1ccccc1` [Nintedanib esylate, 1H-Indole-6-carboxylic acid, 2,3 dihydro-3-[[[4-[methyl[(4-methyl-1-piperazinyl)acetyl]amino]phenyl]amino]phenylmethylene]-2-oxo-,methyl ester, (3Z)-, ethanesulfonate (1:1)], the “intrinsic pH of saturated solution in water” value ([1]; saturated solution in water) is listed as 5.7, the “concentration of a saturated solution in water” value ([1]; water) is listed as 2800 µg/mL and the “solubility in water / aqueous media (descriptive)” value [1] is listed as “soluble”.

In the case of `COC(=O)c1ccc2c(c1)NC(=O)/C2=C(\Nc1ccc(N(C)C(=O)CN2CCN(C)CC2)cc1)c1ccccc1` [Nintedanib, 1H-Indole-6-carboxylic acid, 2,3 dihydro-3-[[[4-[methyl[(4-methyl-1-piperazinyl)acetyl]amino]phenyl]amino]phenylmethylene]-2-oxo-,methyl ester], the “median Tmax” value (fasted) is listed as 2.00 h, the “median Tmax” value (fed) is listed as 3.98 h and the “increase in exposure after food intake compared to fasted conditions” value (fed versus fasted) is listed as “approximately 20%”.

For `O=C(NC[C@H]1CN(c2ccc(N3CCOCC3=O)cc2)C(=O)O1)c1ccc(Cl)s1` [Rivaroxaban, 5-Chloro-N-({(5S)-2-oxo-3-[4-(3-oxo-4-morpholinyl)phenyl]-1,3-oxazolidin-5-yl}methyl)-2-thiophenecarboxamide], the “solubility in organic solvents (descriptive)” value ([1]; organic solvents (e.g., acetone, polyethylene glycol 400)) is given as “only slightly soluble”, the “solubility in water / aqueous media (descriptive)” value [1] is given as “practically insoluble” and the absolute bioavailability (20 mg dose, fasted state) is given as “approximately 66%”. For the same compound, the “decrease in AUC compared to tablet” value [2] was 29% and the “decrease in Cmax compared to tablet” value [2] was 56%.

For `CNC(=O)c1cc(Oc2ccc(NC(=O)Nc3ccc(Cl)c(C(F)(F)F)c3)cc2)ccn1` [Sorafenib, 4-[4-({[4-chloro-3-(trifluoromethyl)phenyl]carbamoyl}amino)phenoxy]-N-methylpyridine-2-carboxamide], the “solubility in PEG 400 (descriptive)” value ([1]; PEG 400) is listed as “soluble”, the “solubility in ethanol (descriptive)” value ([1]; ethanol) is listed as “slightly soluble” and the “solubility in water / aqueous media (descriptive)” value [1] is listed as “practically insoluble”.
